Measurements reported in patent US11795200B2, “Nano small peptide and its use in preparation of drugs for treating and preventing fundus vascular diseases” (FUTU Biotech Co., Ltd., priority 2021, dated 2023).
Non-standard residues stand in square brackets, D forms with d. Residues, ends and D or L forms follow the SMILES beside them. No end group written: not given here. *: point of attachment. Palmitoyl = CCCCCCCCCCCCCCCC(=O)*

Legend:
[1] = system: mouse brain microvascular endothelial cells; assay: sSema4D-induced endothelial cell leakage (transmembrane resistance); format: cell-based; conditions: 36 h; for effect on endothelial cell leakage compared with BMA-12: 20 μM vs BMA-12 2 μg/μL; for sSema4D-induced endothelial cell leakage: 20 μM, sSema4D 1600 ng/mL
Description: A layer of fibronectin was first applied to coat the upper layer of a 24-well transwell chamber (0.4 um) and incubated at room temperature for 1 h; after coating, the mouse brain microvascular endothelial cells were seeded, and cultured for 5 days until the cells were full, and then FH (20 μM), FG (20 μM), and Sema4D neutralizing antibody (BMA-12) (2 μg/μL) were added to the medium (the concentration of sSema4D in the medium was 1600 ng/mL), respectively. An equal volume of DMSO was added as a control, and ECM was used as a blank control. After incubation for 36 h, the resistance value was measured by a cell transmembrane resistance measuring instrument.

[2] = DLS particle size and zeta potential of FH and FG nanoparticles; format: physicochemical; conditions: zeta sizer, 25° C.
Description: First, FG and FH nanoparticle solutions with a concentration of 20 μM were prepared as follows. 0.01 mmol of FG (or FH) was weighed and dissolved in 1 mL of DMSO solution, and then diluted into 5 folds to a concentration of 2 mM, thus obtaining mother solution A. 10 μL of mother solution A was quickly added to 1 mL of water, and the resulting solution was then vortexed for 30 s to obtain a nanoparticle solution. Second, samples were made. 10 ul of FG (or FH) solution was added dropwise onto a copper mesh for 5 min, and the excess solution was removed with filter paper. 10 μL of uranyl acetate stain was added dropwise for 5 min, and the excess stain was removed with filter paper. Washing with 10 μl of deionized water was carried out once. The samples were dried in vacuum overnight. Finally, transmission electron microscopy observations were performed on an HT-7700 transmission electron microscope (Hitachi, Tokyo, Japan). Scale bar was 200 nm.
The particle size and zeta potential of FH and FG nanoparticles were measured with a zeta sizer (Nano ZZ90, Malvern, UK) at 25° C.

[3] = target: T1, sSema4D (Mus musculus, UniProt O09126); assay: ELISA of sSema4D in vitreous humor after eye drops; format: in vivo; design: from tissue; host or cells: vitreous humor of C57 mice; conditions: eye drops 10 μL of 20 μM, twice daily, 3 days
T1 sequence (O09126 24-733 limits assumed): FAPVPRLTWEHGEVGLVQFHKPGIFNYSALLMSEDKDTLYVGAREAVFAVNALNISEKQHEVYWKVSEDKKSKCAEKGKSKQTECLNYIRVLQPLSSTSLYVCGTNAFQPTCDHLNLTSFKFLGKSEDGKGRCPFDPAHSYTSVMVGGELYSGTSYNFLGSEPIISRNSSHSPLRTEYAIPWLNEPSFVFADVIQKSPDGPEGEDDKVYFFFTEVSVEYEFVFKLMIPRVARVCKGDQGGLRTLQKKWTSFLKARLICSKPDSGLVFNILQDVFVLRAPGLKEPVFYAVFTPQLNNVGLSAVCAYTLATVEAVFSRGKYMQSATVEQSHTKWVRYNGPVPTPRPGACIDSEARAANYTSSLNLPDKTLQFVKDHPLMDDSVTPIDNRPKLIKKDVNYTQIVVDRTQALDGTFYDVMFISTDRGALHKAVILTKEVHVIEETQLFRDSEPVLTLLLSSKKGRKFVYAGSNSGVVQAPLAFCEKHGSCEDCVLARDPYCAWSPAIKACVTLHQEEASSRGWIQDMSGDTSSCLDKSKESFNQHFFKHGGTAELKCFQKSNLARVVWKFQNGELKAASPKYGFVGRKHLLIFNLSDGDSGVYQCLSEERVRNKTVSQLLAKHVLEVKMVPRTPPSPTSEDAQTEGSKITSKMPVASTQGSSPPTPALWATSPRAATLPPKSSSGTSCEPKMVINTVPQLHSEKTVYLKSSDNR
Description: In this example, 8-week-old C57 male mice were used, with ten data points in each group, and each data point was the average of the experimental results of 5 mice.
The water on the eyeballs was then removed with filter paper to release and collect the vitreous humor. ELISA kit (Shanghai Yuanmu Biotechnology Co., Ltd.) was used to detect the expression of sSema4D protein in vitreous humor.
Control group was instilled with the same volume of PBS solution; vehicle group was instilled the same volume of artificial tears (Systane).

[4] = system: primary mouse brain microvascular endothelial cells; assay: sSema4D-induced endothelial cell migration (transwell experiment); format: cell-based; conditions: 24 h; for inhibition of endothelial cell migration compared with BMA-12: 20 μM vs BMA-12 2 μg/μL; for sSema4D-induced endothelial cell migration: 20 μM, sSema4D 1600 ng/mL
Description: The primary mouse brain microvascular endothelial cells were starved with 0.5% ECM for 4 to 6 h. The mouse brain microvascular endothelial cells were seeded in the upper layer of a 24-well transwell chamber ([…]). 1% ECM medium containing FH (20 μM), FG (20 μM), and Sema4D neutralizing antibody (BMA-12) (2 μg/μL) (the concentration of sSema4D in the medium is 1600 ng/mL) was added to the lower chamber, and an equal volume of DMSO was added as control. The cells were incubated in a 5% CO2 incubator at 37° C. for 24 h. 24 h later, the cells on the bottom of the chamber were fixed with 4% paraformaldehyde and stained with crystal violet, and the endothelial cells that penetrated to the bottom of the chamber were counted under a microscope.

[5] = system: OIR model mice; assay: Fundus angiogenesis in OIR model (Isolectin B4, confocal); format: in vivo, mouse; conditions: for percentage of abnormal blood vessels in the total retinal area: 2 nmol injected into the vitreous on day 12, read on day 17; for treatment effect on fundus angiogenesis compared with BMA-12: 2 nmol vs 1 μg BMA-12, intravitreal
Description: Treatment group (OIR): After giving birth, 3-4 month old C57BL/6 mother mice were placed in an oxygen chamber with 75% oxygen together with 7 day old young mice, and the young mice and the mother mice were taken out on the 12th day of birth of the young mice. Immediately after the young mice were anesthetized, 2 nmol of FH, 2 nmol of FG, and 1 μg of Sema4D neutralizing antibody (BMA-12) (BMA-12, i.e., anti-Sema4D) were injected into the vitreous, and an equal volume of DMSO was used as a control. The young mice were then further raised in normal air for 5 days; the young mice were anesthetized on the 17th day of birth, and after cardiac perfusion with normal saline, the eyeballs were separated and then fixed, stained with Isolectin B4 overnight at 4° C., flatly spread on a glass slide, and photographed.
Control group (Normal): Young mice, grown with normoxia, were anesthetized on the 17th day of birth. After cardiac perfusion with normal saline, the eyeballs were taken out, and the retinas were peeled off and then fixed with 4% paraformaldehyde, stained with Isolectin B4 at 4° C. overnight, flatly spread on a glass slide, and photographed
Laser confocal was carried out to detect retinal angiogenesis, and ImageJ was carried out to calculate the ratio of retinal neovascularization clusters to the entire retinal area, that is, the proportion of new blood vessels. […] It can be seen in FIG. 4A that the treatment effect of FH is the best.

| Compound | effect on endothelial cell leakage compared with BMA-12 [1] | sSema4D-induced endothelial cell leakage [1] | charges (zeta potential) [2] | particle diameters [2] [nm] | expression of sSema4D protein in the vitreous humor [3] | inhibition of endothelial cell migration compared with BMA-12 [4] | sSema4D-induced endothelial cell migration [4] | percentage of abnormal blood vessels in the total retinal area [5] | treatment effect among groups in FIG. 4A ([5]; 2 nmol intravitreal) | treatment effect on fundus angiogenesis compared with BMA-12 [5] |
| --- | --- | --- | --- | --- | --- | --- | --- | --- | --- | --- |
| CCCCCCCCCCCCCCCC(=O)N[C@H](Cc1ccccc1)C(=O)N[C@@H](Cc1ccccc1)C(=O)N[C@H](C(=O)N[C@@H](CC(C)C)C(=O)N[C@@H](CCCCN)C(=O)N[C@@H](CCCCN)C(=O)N[C@@H](CCC(N)=O)C(=O)N[C@@H](CCCCN)C(=O)N[C@@H](CCCNC(=N)N)C(=O)N1CCC[C@H]1C(=O)N[C@@H](CCCNC(=N)N)C(=O)N[C@@H](Cc1c[nH]cn1)C(=O)O)C(C)C [FH] (Palmitoyl-[dF]FVLKKQKRPRH-OH) | comparable to that of Sema4D neutralizing antibody (BMA-12) | can significantly inhibit sSema4D-induced endothelial cell leakage | +40.4 mV | 54.43±2.8 | reduce the expression of sSema4D protein in the vitreous humor | more effective in inhibiting endothelial cell migration than Sema4D neutralizing antibody (BMA-12) | can significantly inhibit the sSema4D-induced endothelial cell migration | reduce the percentage of abnormal blood vessels in the total retinal area | the best | comparable to that of the Sema4D neutralizing antibody (BMA-12) |
| Palmitoyl-FFVLKKNKAAKG [FG] | comparable to that of Sema4D neutralizing antibody (BMA-12) | can significantly inhibit sSema4D-induced endothelial cell leakage | +44.8 mV | 57.67±2.6 | reduce the expression of sSema4D protein in the vitreous humor | more effective in inhibiting endothelial cell migration than Sema4D neutralizing antibody (BMA-12) | can significantly inhibit the sSema4D-induced endothelial cell migration | reduce the percentage of abnormal blood vessels in the total retinal area | – | comparable to that of the Sema4D neutralizing antibody (BMA-12) |
